Measurements from US6362369B1, “Phthalic acid diamide derivatives fluorine-containing aniline compounds as starting material, agricultural and horticultural insecticides, and a method for application of the insecticides” (Nihon Nohyaku Co., Ltd., priority 1997, dated 2002).

Columns and labels:
Type in all cases: in vivo
[1] = tested on: diamondback moth (Plutella xylostella); assay: Insecticidal effect on diamondback moth (Test Example 1); settings: diamondback moth; judged by the mortality criterion of Test Example 1
Procedure, shortened: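 Chinese cabbage seedlings carrying eggs laid by released adult moths were immersed in treatment, air-dried and held at 25° C. Hatched insects were counted six days after immersion, and mortality was calculated and scored against a fixed criterion. Three replicate groups of 10 insects were used.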

[2] = tested on: common cutworm (Spodoptera Litura); assay: Insecticidal effect on common cutworm (Test Example 2); settings: 500 ppm; cabbage leaf immersed; second-instar larvae of common cutworm; eight days after inoculation; 25° C.
Procedure, shortened: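 Insecticidal effect was rated from percent mortality of second-instar larvae exposed to air-dried treatment at 25° C for 8 days.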

[3] = tested on: rice leafroller (Cnaphalocrocis medinalis); assay: Insecticidal effect on rice leafroller (Test Example 3); settings: 500 ppm; rice lamina immersed; third-instar larvae of rice leafroller; four days after inoculation; 25° C., humidity 70%
Procedure, shortened: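 Groups of 10 third-instar larvae, in triplicate, are placed on air-dried lamina resting on wet filter paper. Incubation runs four days at 25° C with 70% humidity before survivors and dead are tallied.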

Compound | Insecticidal effect, Test Example 1 [1] | Insecticidal effect, Test Example 2 [2] | Insecticidal effect, Test Example 3 [3]
Cc1cc(Oc2ccc(C(F)(F)F)cn2)ccc1NC(=O)c1cccc(Br)c1C(=O)NC(C)C [compound 299] | A (100) | A (100) | A (100)
CC(C)NC(=O)c1cccc(Br)c1C(=O)Nc1ccc(C(F)(F)F)cc1 [compound 301] | A (100) | A (100) | D (79-50)
Cc1c(Cl)cccc1NC(=O)c1c(Br)cccc1C(=O)NC(C)C [compound 305] | A (100) | A (100) | A (100)
Cc1cc(Cl)ccc1NC(=O)c1c(Br)cccc1C(=O)NC(C)C [compound 306] | A (100) | A (100) | A (100)
Cc1c(Br)ccc(NC(=O)c2c(Br)cccc2C(=O)NC(C)C)c1C [compound 312] | A (100) | A (100) | A (100)
Cc1cc(I)ccc1NC(=O)c1c(Br)cccc1C(=O)NC(C)C [compound 313] | A (100) | A (100) | A (100)
Cc1cc(C(F)(F)F)ccc1NC(=O)c1c(Br)cccc1C(=O)NC(C)C [compound 316] | A (100) | A (100) | A (100)
Cc1cc(C(F)(F)C(F)(F)C(F)(F)C(F)(F)F)ccc1NC(=O)c1c(Br)cccc1C(=O)NC(C)C [compound 318] | A (100) | B (99-90) | A (100)
Cc1cc(OCC(F)(F)C(F)F)ccc1NC(=O)c1c(Br)cccc1C(=O)NC(C)C [compound 319] | A (100) | B (99-90) | B (99-90)
CC(C)NC(=O)c1cccc(Br)c1C(=O)Nc1ccc(OC(F)(F)F)cc1Cl [compound 323] | A (100) | C (89-80) | A (100)
Cc1cc(OC(F)F)ccc1NC(=O)c1c(Br)cccc1C(=O)NC(C)C [compound 325] | A (100) | A (100) | A (100)
Cc1cc(OC(F)(F)C(F)C(F)(F)F)ccc1NC(=O)c1c(Br)cccc1C(=O)NC(C)C (stereo not drawn) [compound 328] | A (100) | A (100) | A (100)
Cc1cc(OC(F)(F)C(F)Cl)ccc1NC(=O)c1c(Br)cccc1C(=O)NC(C)C (stereo not drawn) [compound 329] | A (100) | A (100) | A (100)
Cc1cc(Oc2cccc(C(F)(F)F)c2)ccc1NC(=O)c1c(Br)cccc1C(=O)NC(C)C [compound 334] | A (100) | C (89-80) | C (89-80)
Cc1cc(OC(F)F)ccc1NC(=O)c1ccc(Br)c(Br)c1C(=O)NC(C)C [compound 338] | A (100) | B (99-90) | A (100)
Cc1cc(Cl)ccc1NC(=O)c1ccc(Br)c(Br)c1C(=O)NC(C)C [compound 339] | A (100) | B (99-90) | A (100)
CC(C)NC(=O)c1c(I)cccc1C(=O)Nc1ccc(Cl)cc1 [compound 345] | A (100) | B (99-90) | A (100)
CC(C)NC(=O)c1c(I)cccc1C(=O)Nc1ccc(Br)cc1 [compound 346] | A (100) | C (89-80) | A (100)
CC(C)NC(=O)c1c(I)cccc1C(=O)Nc1ccc(I)cc1 [compound 347] | A (100) | B (99-90) | C (89-80)
CC(C)NC(=O)c1c(I)cccc1C(=O)Nc1ccc(C(F)(F)C(F)(F)C(F)(F)F)cc1 [compound 350] | A (100) | A (100) | A (100)
CC(C)NC(=O)c1c(I)cccc1C(=O)Nc1ccc(C(F)(C(F)(F)F)C(F)(F)F)cc1 [compound 351] | A (100) | A (100) | A (100)

Compound | Insecticidal effect, Test Example 1 [1] | Insecticidal effect, Test Example 2 [2] | Insecticidal effect, Test Example 3 [3]
CC(C)NC(=O)c1c(I)cccc1C(=O)Nc1ccc(OC(F)(F)C(F)OC(F)(F)F)cc1 (stereo not drawn) [compound 353] | A (100) | A (100) | A (100)
CC(C)NC(=O)c1c(I)cccc1C(=O)Nc1ccc(SC(F)F)cc1 [compound 354] | A (100) | A (100) | A (100)
CC(C)NC(=O)c1c(I)cccc1C(=O)Nc1ccc(SCC(F)(F)F)cc1 [compound 355] | A (100) | C (89-80) | A (100)
CC(C)NC(=O)c1c(I)cccc1C(=O)Nc1ccc(SC(F)(F)C(F)F)cc1 [compound 356] | A (100) | A (100) | A (100)
CC(C)NC(=O)c1c(I)cccc1C(=O)Nc1ccc(F)c(F)c1 [compound 360] | A (100) | D (79-50) | A (100)
Cc1c(Cl)cccc1NC(=O)c1cccc(I)c1C(=O)NC(C)C [compound 361] | A (100) | A (100) | A (100)
Cc1cc(Cl)ccc1NC(=O)c1cccc(I)c1C(=O)NC(C)C [compound 362] | A (100) | A (100) | A (100)
Cc1ccc(Cl)cc1NC(=O)c1cccc(I)c1C(=O)NC(C)C [compound 363] | A (100) | A (100) | A (100)
Cc1ccc(NC(=O)c2cccc(I)c2C(=O)NC(C)C)c(C)c1Cl [compound 364] | A (100) | A (100) | D (79-50)
Cc1c(Cl)ccc(NC(=O)c2cccc(I)c2C(=O)NC(C)C)c1C [compound 365] | A (100) | A (100) | A (100)
Cc1cc(Br)ccc1NC(=O)c1cccc(I)c1C(=O)NC(C)C [compound 366] | A (100) | A (100) | A (100)
Cc1cc(I)ccc1NC(=O)c1cccc(I)c1C(=O)NC(C)C [compound 367] | A (100) | A (100) | A (100)
Cc1cc(F)ccc1NC(=O)c1cccc(I)c1C(=O)NC(C)C [compound 368] | A (100) | A (100) | A (100)
CC(C)NC(=O)c1c(I)cccc1C(=O)Nc1ccc(C(F)(F)F)cc1Cl [compound 369] | A (100) | A (100) | A (100)
Cc1c(NC(=O)c2cccc(I)c2C(=O)NC(C)C)cccc1C(F)(F)F [compound 370] | A (100) | A (100) | A (100)
Cc1cc(C(F)(F)F)ccc1NC(=O)c1cccc(I)c1C(=O)NC(C)C [compound 371] | A (100) | A (100) | A (100)
Cc1cc(C(F)(F)C(F)(F)F)ccc1NC(=O)c1cccc(I)c1C(=O)NC(C)C [compound 372, 3-iodo-N^1-(4-pentafluoroethyl-2-methylphenyl)-N^2-isopropyl-phthalic acid diamide] | A (100) | A (100) | A (100)
Cc1cc(C(F)(F)C(F)(F)C(F)(F)F)ccc1NC(=O)c1cccc(I)c1C(=O)NC(C)C [compound 373] | A (100) | A (100) | A (100)
Cc1cc(C(F)(C(F)(F)F)C(F)(F)F)ccc1NC(=O)c1cccc(I)c1C(=O)NC(C)C [compound 374] | A (100) | A (100) | A (100)
Cc1cc(C(F)(F)C(F)(F)C(F)(F)C(F)(F)F)ccc1NC(=O)c1cccc(I)c1C(=O)NC(C)C [compound 375] | A (100) | A (100) | A (100)
